The text below walks through data of patent US20260015574A1, “METHODS FOR SHORTENING LAG PHASE DURATION IN MICROORGANISMS” (YEDA RESEARCH AND DEVELOPMENT CO. LTD., priority 2022, published 2026).

The test system of one assay is E. coli. Description: Lag phase shortening in E. coli. The class given is cell-based, Escherichia coli. From the text: (§1) To explore whether lag phase shortening is a general mechanism among bacteria, the inventors tested the effect of methylated compounds in bacteria with different lifestyles. […] Since methylated compounds are a hallmark of photosynthesizing organisms, the inventors next tested a variety of bacteria that are plant-associated. […] Finally, to establish the prevalence of lag phase shortening among bacteria, the inventors tested the model bacterium E. coli. This bacterium is not commonly found associated with photosynthesizing organisms, and thus, is unlikely to respond to algal metabolites. […] The synchrony between specific compounds and different groups of bacteria may reflect the natural context […].

The subject of assay [1] is opportunistic pathogens, found in both plants and humans. Description: Lag phase shortening in opportunistic pathogens found in plants and humans. The class given is cell-based.
Text: as §1

In assay [2] the test system is Phaeobacter inhibens DSM 17395. The assay is described as follows: Growth / lag phase shortening assay of P. inhibens pure cultures with glucose. Conditions: for lag phase shortening effect (Δlag time) of panel compounds: 1 mM glucose and 2 μM of the respective compound. It is filed as cell-based. The method, then:
ASW was adjusted to pH 8 using HCl. If not otherwise stated, the medium was further supplemented with a source of carbon (glucose, 1 mM), nitrogen (NH4Cl, 5 mM), and sulfur (Na2SO4, 33 mM), referred to as ASW+CNS. […] A 96-well Tecan Infinite M Plex plate reader was used for high-resolution monitoring of bacterial growth dynamics at 30° C. An ImageStreamX Flow Imager system (Amnis) was used to characterize bacterial populations during the lag phase (FIG. 6). The growth of bacteria in co-culture with algae was monitored by counting colony forming units (CFU) on ½ YTSS agar plates. The growth of algae was monitored with a CellStream flow cytometer (Merck, Darmstadt, Germany).
To test whether methylated compounds affect the growth of bacteria, the inventors cultivated bacterial pure cultures with glucose as main growth substrate and supplemented the medium with the well-studied methylated compound dimethylsulfoniopropionate (DMSP). DMSP that is naturally produced by microalgae and found in detectable levels in seawater, is known to be metabolized by various bacteria. […] To quantify the lag phase shortening effect, the inventors calculated the Δlag time, which is the time difference between the commence of exponential growth in control cultures compared to treated cultures (FIG. 5B).
To reflect the natural low bacterial abundance in the oligotrophic ocean with low microalgal productivity, the current bacterial growth experiments were routinely initiated with an optical density (OD) of 0.00001. Such low initial ODs challenge the detection of cell divisions that occur prior to reaching an OD of at least 0.001, which is the theoretical limit of detection. To determine the actual length of the lag phase, the inventors analyzed bacterial cultures using imagining flow cytometry.

In the next assay the test system is P. inhibens. The assay is described as follows: Lag phase metabolomics with 13C-labeled DMSP. It is filed as cell-based, Phaeobacter inhibens. Conditions: 50 μM 13C-labeled DMSP, two hours, LC/MS. As for the experimental part:
DMSP was synthesized in which both S-methyl groups are ^13C-labeled, using the protocol of Wirth and Whitman (2018). Freshly initiated P. inhibens cultures (OD 0.01, ASW+CNS medium) were treated with 50 μM 13C-labeled DMSP and compared to reference cultures with non-labeled DMSP. Bacterial cells were harvested and extracted two hours after adding DMSP. The incorporation of the 13C label was analyzed by LC/MS (FIG. 12).
To further elucidate the fate of methyl groups, the inventors analyzed the transcriptome of DMSP-treated P. inhibens bacteria during the lag phase, and compared it to untreated control cultures. […] To further establish that DMSP methyl groups are assimilated via the methionine cycle, the inventors measured the methionine synthesis activity in protein crude extracts of stationary bacterial cells, using a biochemical assay followed by LC/MS analysis. […] Taken together, the inventors established that DMSP methyl groups are assimilated during the lag phase via the methionine cycle.

For assay [3], the system named is marine bacterium Vibrio sp. Description: Lag phase shortening in Vibrio sp. The class given is cell-based. Conditions: 2 μM compound. As for the experimental part:
(§2) The bacterial strain Phaeobacter inhibens DSM 17395 was purchased from the German collection of microorganisms and cell cultures (DSMZ, Braunschweig, Germany) and stored at −80° C. with 20% glycerol. Routine cultivation of P. inhibens was conducted at 30° C. in artificial seawater medium (ASW) based on Goyet and Poisson (1989). The ASW medium contained mineral salts (NaCl, 409.41 mM; Na2SO4, 28.22 mM; KCl, 9.08 mM; KBr, 0.82 mM; NaF, 0.07 mM; Na2CO3, 0.20 mM; NaHCO3, 2 mM; MgCl2, 50.66 mM; SrCl2, 0.09 mM), L1 vitamins (thiamine HCl, 100 μg/L; biotin, 0.5 μg/L; vitamin B12, […]), L1 trace elements (Na2EDTA·2H2O, 4.36 mg/L; FeCl3·6H2O, 3.15 mg/L; MnCl2·4H2O, 178.1 μg/L; ZnSO4·7H2O, 23.0 μg/L; CoCl2·6H2O, 11.9 μg/L; CuSO4·5H2O, 2.5 μg/L; Na2MoO4·2H2O, 19.9 μg/L; H2SeO3, 1.29 μg/L; NiSO4·6H2O, 2.63 μg/L; Na3 VO4, 1.84 μg/L; K2CrO4, 1.94 μg/L), and L1 nutrients (NaNO3, 882 μM; NaH2PO4, 36.22 μM). ASW was adjusted to pH 8 using HCl. […] A 96-well Tecan Infinite M Plex plate reader was used for high-resolution monitoring of bacterial growth dynamics at 30° C. […] The growth of bacteria in co-culture with algae was monitored by counting colony forming units (CFU) on ½ YTSS agar plates. The growth of algae was monitored with a CellStream flow cytometer (Merck, Darmstadt, Germany). […]

The test system of assay [4] is Bacillus subtilis strain 168. The assay is described as follows: Lag phase shortening in B. subtilis. It is filed as cell-based. The method, then:
The bacterial strain Phaeobacter inhibens DSM 17395 was purchased from the German collection of microorganisms and cell cultures (DSMZ, Braunschweig, Germany) and stored at −80° C. with 20% glycerol. Routine cultivation of P. inhibens was conducted at 30° C. in artificial seawater medium (ASW) based on Goyet and Poisson (1989). The ASW medium contained mineral salts (NaCl, 409.41 mM; Na2SO4, 28.22 mM; KCl, 9.08 mM; KBr, 0.82 mM; NaF, 0.07 mM; Na2CO3, 0.20 mM; NaHCO3, 2 mM; MgCl2, 50.66 mM; SrCl2, 0.09 mM), L1 vitamins (thiamine HCl, 100 μg/L; biotin, 0.5 μg/L; vitamin B12, […]), L1 trace elements (Na2EDTA·2H2O, 4.36 mg/L; FeCl3·6H2O, 3.15 mg/L; MnCl2·4H2O, 178.1 μg/L; ZnSO4·7H2O, 23.0 μg/L; CoCl2·6H2O, 11.9 μg/L; CuSO4·5H2O, 2.5 μg/L; Na2MoO4·2H2O, 19.9 μg/L; H2SeO3, 1.29 μg/L; NiSO4·6H2O, 2.63 μg/L; Na3 VO4, 1.84 μg/L; K2CrO4, 1.94 μg/L), and L1 nutrients (NaNO3, 882 μM; NaH2PO4, 36.22 μM). ASW was adjusted to pH 8 using HCl. If not otherwise stated, the medium was further supplemented with a source of carbon (glucose, 1 mM), nitrogen (NH4Cl, 5 mM), and sulfur (Na2SO4, 33 mM), referred to as ASW+CNS. Methylated effector compounds (e.g., donors) were administered at 1 or 2 μM in routine assays, or in higher concentrations as stated. The bacterium Bacillus subtilis strain 168 was cultivated in M9 Medium (Na2HPO4, 6 g/L; KH2PO4, 3 g/L; NaCl, 0.5 g/L; NH4CL, 1 g/L; CaCl2), 100 µM; MgSO4, 1 mM; Thiamine, 5 mg/L; EDTA, 50 mg/L; FcCl3, 4.98 mg/L; ZnCl2, 0.84 mg/L; CuCl2·2H2O, 0.13 mg/L; CoCl2·6H2O, 0.1 mg/L; H3BO3, 0.1 mg/L; MnCl2·4H2O, 0.016 mg/L; pH 7.1) with 20 mM glucose. Other bacterial strains tested for lag phase shortening were isolated from the marine environment (Despotović et al., 2021), and cultivated in ASW+CNS. A 96-well Tecan Infinite M Plex plate reader was used for high-resolution monitoring of bacterial growth dynamics at 30° C. […] The growth of bacteria in co-culture with algae was monitored by counting colony forming units (CFU) on ½ YTSS agar plates. The growth of algae was monitored with a CellStream flow cytometer (Merck, Darmstadt, Germany). […]

In assay [5] the test system is P. inhibens mttB1 KO mutant. Description: Lag phase shortening in mttB1 knockout mutant. It is filed as cell-based, Phaeobacter inhibens. The method, then:
(§3) For creation of P. inhibens knockout cells, ˜1,000 bp regions upstream and downstream of the gene of interest were amplified by PCR (Phusion High-Fidelity DNA polymerase, Thermo Scientific), using primers that added homologous regions to gentamycin or kanamycin resistance markers. The fragments were assembled and cloned into the TOPOII vector (Invitrogen) using restriction-free cloning (Peleg Y. & Unger T., 2014), generating a knockout (KO) plasmid. P. inhibens electrocompetent cells (300 μl) were transformed with 10 μg of the constructed KO plasmid by a pulse of 1.8 kV (Bio Rad). Cells were selected on ½YTSS agar plates containing 30 μg/ml gentamycin or 150 μg/ml kanamycin. Successful knockouts in single cell clones were verified by PCR and sanger sequencing.
The inventors further sought to better understand why methyl groups shorten the bacterial lag phase. The inventors list at least three cellular scenarios which could explain the effect that methylated compounds have on the lag phase: (1) methyl groups might be a limiting resource; (2) methyl groups might act as a signal that triggers a cellular cascade, which culminates in lag phase shortening; and (3) methylated compounds could accumulate intracellularly and function as osmoprotectants and antioxidants. […]

Assay [6] concerns bacteria that are plant-associated. Description: Lag phase shortening in plant-associated bacteria. It is filed as cell-based.
Text: as §1

For a further assay, the system named is Various marine bacteria. Description: Lag phase shortening in various marine bacteria. It is filed as cell-based. Conditions: minute amounts of compound. The method, then:
as §2

In the next assay the test system is P. inhibens Δbmt mutant. The assay is described as follows: Growth and lag phase shortening in Δbmt mutant. Conditions: minimal media, addition of 200 μM methionine. It is filed as cell-based, Phaeobacter inhibens. The method, then: as §3

Take `C[S+](C)CC[C@H](N)C(=O)O` [SMM, S-methyl-L-methionine]: the Δlag time result in the assay on E. coli (E. coli BL21, 2 μM SMM (FIG. 17C)) is listed as “Δlag time of one hour”. Also, the lag phase shortening entry in the assay with E. coli (modified strains BL21(DE3) and DH5α) is on record as “this effect was observed”; with E. coli (wild-type strain K12) it was “only showed this effect upon addition of greater SMM concentrations”; in assay [1] it was “shorten their lag phase”.
Consider `C[S+](C)CCC(O)CC(=O)[O-]` (centres unmarked) [gonyol], for which the “lag phase shortening effect (Δlag time) of panel compounds” value (shortened to “lag phase shortening effect (Δlag time)”) in assay [2] was “most pronounced”.
With `[13CH3][S+]([13CH3])CCC(=O)[O-]` [13C-labeled DMSP], in the assay on P. inhibens, the “metabolic fate of DMSP methyl groups (13C label incorporation)” value is “converted into SAM”.
`C[N+](C)(C)CC(=O)O` [betaine, glycine betaine]: the lag phase shortening entry in [3] is reported as “induction of the lag phase shortening”; with E. coli (treatment with algal metabolites) it was “did not shorten the lag phase”; in assay [4] (2 μM compound) it was “induction of the lag phase shortening”; in [5] it was “does not shorten the lag phase”; in [6], “significant shortening of the lag phase”; with Various marine bacteria it was “marked lag phase shortening”. This compound also returned a Δlag time in [4] (FIG. 17B) of 7 h. Besides, in assay [2], the “lag phase shortening effect (Δlag time)” value is listed as “most pronounced”.
Consider `COc1cc(Cc2cnc(N)nc2N)cc(OC)c1OC` [Trimethoprim, reference compound], for which, in [2], the “growth of P. inhibens in the presence of the THF inhibitor” value is given as “cannot grow unless the culture is supplemented with nucleotides”.
For `CSCC[C@H](N)C(=O)O` [methionine], the “growth of the Δbmt mutant” value in the assay on P. inhibens Δbmt mutant is given as “fully recovered”. Also, the “lag phase shortening effect (Δlag time)” value in [2] is listed as “prolonged the lag phase”.
`C[N+](C)(C)CC(O)CC(=O)[O-]` (centres unmarked) [carnitine]: the “lag phase shortening effect (Δlag time)” value in assay [2] is “most pronounced”.
Still for that read-out and setting: the same measure for `C[N+]1(C)CCC[C@H]1C(=O)[O-]` [stachydrine]: “most pronounced”; for `C[S+](C)CC(=O)[O-]` [DMSA, dimethylsulfonioacetate]: “most pronounced”.
